Assay results: US6696431B2, “26,27-homologated-20-EPI-2-alkylidene-19-nor-vitamin D compounds” (Wisconsin Alumni Research Foundation, priority 1997, dated 2004)
Marks after values point to notes of the source that are not given here.

What was measured:
HL-60 cells = assay: Differentiation of HL-60 promyelocytes to monocytes (NBT reduction); assay type: cell-based; conditions: for HL-60 Differentiation ED50: concentration inducing 50% maturation, NBT reduction; for induction of differentiation of HL-60 cells to the monocyte, in words: FIG. 2; for HL-60 Differentiation Activity ratio: ratio of analog ED50 to ED50 for 1α,25-(OH)2D3
vitamin D-deficient rats [1] = assay: Intestinal calcium transport (everted sac), chronic doses for 7 days (Table 1); assay type: in vivo, rat; conditions: for Intestinal Calcium Transport (S/M): intraperitoneal, 24 h after last dose, mean±SEM; for intestinal calcium transport, in words: chronic 7 days, 130 or 260 pmol/day, 1,25-(OH)2D3 at 260 pmol/day only
Procedure: (§1) Male weanling rats were obtained from Sprague Dawley Co. (Indianapolis, Ind.) and fed a 0.47% calcium, 0.3% phosphorus vitamin D-deficient diet for 1 week and then given the same diet containing 0.02% calcium, 0.3% phosphorus for 2 weeks. During the last week they were given the indicated dose of compound by intraperitoneal injection in 0.1 ml 95% propylene glycol and 5% ethanol each day for 7 days. The control animals received only the 0.1 ml of 95% propylene glycol, 5% ethanol. Twenty-four hours after the last dose, the rats were sacrificed and intestinal calcium transport was determined by everted sac technique as previously described and serum calcium determined by atomic absorption spectrometry on a model 3110 Perkin Elmer instrument (Norwalk, Conn.). There were 5 rats per group and the values represent mean±SEM.

vitamin D-deficient rats [2] = assay: Serum calcium (bone calcium mobilization), chronic doses for 7 days (Table 1); assay type: in vivo, rat; conditions: for Serum Calcium: intraperitoneal, 24 h after last dose, mean±SEM; for bone calcium mobilization, in words: 130 and 260 pmol/day
Procedure: as §1

vitamin D-deficient rats [3] = assay: Intestinal calcium transport after a single dose (Table 2); assay type: in vivo, rat; conditions: single intrajugular dose 650 pmol, 24 h later, mean±SEM
Procedure: (§2) Male Holtzman strain weanling rats were obtained from the Sprague Dawley Co. (Indianapolis, Ind.) and fed the 0.47% calcium, 0.3% phosphorus diet described by Suda et al. (J. Nutr. 100, 1049-1052, 1970) for 1 week and then fed the same diet containing 0.02% calcium and 0.3% phosphorus for 2 additional weeks. At this point, they received a single intrajugular injection of the indicated dose dissolved in 0.1 ml of 95% propylene glycol/5% ethanol. Twenty-four hours later they were sacrificed and intestinal calcium transport and serum calcium were determined as described in Table 1. The dose of the compounds was 650 pmol and there were 5 animals per group. The data are expressed as mean±SEM.

vitamin D-deficient rats [4] = assay: Serum calcium (bone calcium mobilization) after a single dose (Table 2); assay type: in vivo, rat; conditions: single intrajugular dose 650 pmol, 24 h later, mean±SEM
Procedure: as §2

[5] = test system: Vitamin D-Deficient Rats on a Low-Calcium Diet; assay: Intestinal calcium transport in vitamin D-deficient rats on a low-calcium diet (Tables 4, 6); assay type: in vivo, rat
[6] = test system: Vitamin D-Deficient Rats on a Low-Calcium Diet; assay: Bone calcium mobilization (serum Ca) in vitamin D-deficient rats on a low-calcium diet (Tables 4, 6); assay type: in vivo, rat
[7] = target: T1, porcine intestinal vitamin D receptor (Sus scrofa, UniProt A3RGC1); assay: Competitive binding to the porcine intestinal vitamin D receptor; conditions: for EC50: concentration for 50% displacement of radiolabeled 1α,25-(OH)2D3, read-out: VDR Binding ED50; for VDR Binding ratio: ratio of analog ED50 to ED50 for 1α,25-(OH)2D3
T1 construct: from tissue; host or cells: porcine intestine
T1 sequence (A3RGC1 1-427): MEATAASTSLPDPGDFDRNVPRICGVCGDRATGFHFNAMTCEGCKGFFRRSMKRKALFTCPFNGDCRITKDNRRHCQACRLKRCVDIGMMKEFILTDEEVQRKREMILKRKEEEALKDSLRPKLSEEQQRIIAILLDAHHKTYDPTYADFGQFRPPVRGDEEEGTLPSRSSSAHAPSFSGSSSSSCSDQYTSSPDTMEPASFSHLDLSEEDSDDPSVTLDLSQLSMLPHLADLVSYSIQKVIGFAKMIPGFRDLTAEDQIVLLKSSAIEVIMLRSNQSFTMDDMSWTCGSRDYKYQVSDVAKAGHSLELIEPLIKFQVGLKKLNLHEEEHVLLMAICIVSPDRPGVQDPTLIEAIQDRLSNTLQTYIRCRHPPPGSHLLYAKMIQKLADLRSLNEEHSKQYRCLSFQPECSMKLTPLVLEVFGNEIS

[8] = 260 pmol daily for 7 days i.p., Table 4 and Table 6 panel 1
[9] = 260 pmol daily for 7 days i.p., Table 6 panel 2
[10] = 15 pmol daily for 7 days i.p., Table 4 and Table 6 panel 1
[11] = 32 pmol daily for 7 days i.p., Table 4 and Table 6 panel 1
[12] = 65 pmol daily for 7 days i.p., Table 6 panel 2

SMILES: C=C1/C(=C\C=C2/CCC[C@]3(C)[C@@H]([C@H](C)CCCC(C)(C)O)CC[C@@H]23)C[C@@H](O)C[C@@H]1O [1,25-(OH)2D3, 1α,25-dihydroxyvitamin D3, reference compound]
- HL-60 Differentiation ED50 (HL-60 cells; listed as 1α,25-(OH)2D3): 4 nM
- Intestinal Calcium Transport (S/M) (vitamin D-deficient rats [1]; 260 pmol/day for 7 days): 6.2 ± 0.4 S/M
- intestinal calcium transport, in words (vitamin D-deficient rats [1]): expected elevation
- Serum Calcium (vitamin D-deficient rats [2]; 130 pmol/day for 7 days): 13.8 mg/100 ml
- Serum Calcium (vitamin D-deficient rats [2]; 260 pmol/day for 7 days): 7.2 ± 0.5 mg/100 ml
- Intestinal Calcium Transport (S/M) (vitamin D-deficient rats [3]): 5.8 ± 0.3 S/M
- Serum Calcium (vitamin D-deficient rats [4]): 5.7 ± 0.2 mg/100 ml
- Ca Transport S/M (mean ± SEM) [5, 8]: 7.2 ± 0.6^c S/M
- Ca Transport S/M (mean ± SEM) [5, 9]: 5.0 ± 0.4^c S/M
- Serum Ca (mean ± SEM) [6, 8]: 5.6 ± 0.2^c
- Serum Ca (mean ± SEM) [6, 9]: 6.3 ± 0.2^c

SMILES: C=C1[C@H](O)CC(=C/C=C2\CCC[C@]3(C)[C@@H]([C@H](C)CCCC(C)(C)O)CC[C@@H]23)C[C@H]1O [2-Methylene-19-Nor-1,25-(OH)2D3, 1α,25-dihydroxy-2-methylene-19-nor-vitamin D3]
- induction of differentiation of HL-60 cells to the monocyte, in words (HL-60 cells): activity similar to 1,25-(OH)2D3
- Intestinal Calcium Transport (S/M) (vitamin D-deficient rats [1]; 130 pmol/day for 7 days): 5.3 ± 0.4 S/M
- Intestinal Calcium Transport (S/M) (vitamin D-deficient rats [1]; 260 pmol/day for 7 days): 4.9 ± 0.6 S/M
- intestinal calcium transport, in words (vitamin D-deficient rats [1]): no intestinal calcium transport activity
- Serum Calcium (vitamin D-deficient rats [2]; 130 pmol/day for 7 days): 9.9 ± 0.2 mg/100 ml
- Serum Calcium (vitamin D-deficient rats [2]; 260 pmol/day for 7 days): 9.6 ± 0.3 mg/100 ml
- bone calcium mobilization, in words (vitamin D-deficient rats [2]; chronic 7 days): extremely strong bone calcium mobilization
- bone calcium mobilization activity relative to 1,25-(OH)2D3 (native hormone) (vitamin D-deficient rats [2]; chronic 7 days, for the 20(S) compound at 130 pmol/day): 10-100 times
- Intestinal Calcium Transport (S/M) (vitamin D-deficient rats [3]): 5.3 ± 0.5 S/M
- Serum Calcium (vitamin D-deficient rats [4]): 6.4 ± 0.1 mg/100 ml

SMILES: C=C1[C@H](O)CC(=C/C=C2\CCC[C@]3(C)[C@@H]([C@@H](C)CCCC(C)(C)O)CC[C@@H]23)C[C@H]1O [2-Methylene-19-Nor-20(S)-1,25-(OH)2D3, 20(S)-1α,25-dihydroxy-2-methylene-19-nor-vitamin D3]
- induction of differentiation of HL-60 cells to the monocyte, in words (HL-60 cells): extremely potent
- Intestinal Calcium Transport (S/M) (vitamin D-deficient rats [1]; 130 pmol/day for 7 days): 5.7 ± 0.8 S/M
- Intestinal Calcium Transport (S/M) (vitamin D-deficient rats [1]; 260 pmol/day for 7 days): 4.6 ± 0.7 S/M
- intestinal calcium transport, in words (vitamin D-deficient rats [1]): no significant change
- Serum Calcium (vitamin D-deficient rats [2]; 130 pmol/day for 7 days): 13.8 ± 0.5 mg/100 ml
- Serum Calcium (vitamin D-deficient rats [2]; 260 pmol/day for 7 days): 14.4 ± 0.6 mg/100 ml
- Serum Calcium (vitamin D-deficient rats [2]; 260 pmol/day for 7 days, listed as 2-methylene-19-nor-20(S)-1,25-(OH)2D3): 14 mg/100 ml
- bone calcium mobilization, in words (vitamin D-deficient rats [2]; chronic 7 days): most potent compound tested
- Intestinal Calcium Transport (S/M) (vitamin D-deficient rats [3]): 5.5 ± 0.6 S/M
- Serum Calcium (vitamin D-deficient rats [4]): 8.0 ± 0.1 mg/100 ml

SMILES: C=C1[C@H](O)CC(=C/C=C2\CCC[C@@]3(C)C2CCC3[C@@H](C)CCCC(O)(CC)CC)C[C@H]1O (stereo partly drawn) [Compound 35, 20(S)-1α,25-Dihydroxy-2-methylene-26,27-dihomo-19-norvitamin D3]
- EC50 [7]: 4.3 nM
- VDR Binding ratio [7]: 4.9
- HL-60 Differentiation Activity ratio (HL-60 cells): 0.01
- Ca Transport S/M (mean ± SEM) [5, 10]: 4.0 ± 0.4^d^^1 S/M
- Ca Transport S/M (mean ± SEM) [5, 11]: 8.2 ± 0.6^d^^2 S/M
- Serum Ca (mean ± SEM) [6, 10]: 5.3 ± 0.1^d^^1
- Serum Ca (mean ± SEM) [6, 11]: 7.3 ± 0.4^d^^2

SMILES: C=C1[C@H](O)CC(=C/C=C2\CCC[C@@]3(C)C2CCC3[C@@H](C)CCC=C2CCCC2)C[C@H]1O (stereo partly drawn) [Compound 45, 20(S)-26,27-dimethylene-1α-hydroxy-2-methylene-24-dehydro-19-norvitamin D3]
- EC50 [7]: 29 nM
- VDR Binding ratio [7]: 33
- HL-60 Differentiation ED50 (HL-60 cells): 4.1 nM
- HL-60 Differentiation Activity ratio (HL-60 cells): 1.0
- Ca Transport S/M (mean ± SEM) [5, 12]: 5.5 ± 0.8^d^^1 S/M
- Ca Transport S/M (mean ± SEM) [5, 9]: 4.3 ± 0.5^d^^2 S/M
- Serum Ca (mean ± SEM) [6, 12]: 5.7 ± 0.1^d^^1
- Serum Ca (mean ± SEM) [6, 9]: 10.8 ± 0.3^d^^2

SMILES: C=C1[C@H](O)CC(=C/C=C2\CCC[C@@]3(C)C2CCC3[C@@H](C)CCCC2(OC)CCCC2)C[C@H]1O (stereo partly drawn) [Compound 46, 20(S)-26,27-dimethylene-1α-hydroxy-25-methoxy-2-methylene-19-norvitamin D3]
- EC50 [7]: 15 nM
- VDR Binding ratio [7]: 17
- HL-60 Differentiation ED50 (HL-60 cells): 4.3 nM
- HL-60 Differentiation Activity ratio (HL-60 cells): 1.1
- Ca Transport S/M (mean ± SEM) [5, 12]: 5.5 ± 0.8^e^^1 S/M
- Ca Transport S/M (mean ± SEM) [5, 9]: 4.3 ± 0.5^e^^2 S/M
- Serum Ca (mean ± SEM) [6, 12]: 5.7 ± 0.1^e^^1
- Serum Ca (mean ± SEM) [6, 9]: 10.8 ± 0.3^e^^2

SMILES: C=C1[C@H](O)CC(=C/C=C2\CCC[C@@]3(C)C2CCC3[C@@H](C)CCCC2(O)CCCC2)C[C@H]1O (stereo partly drawn) [Compound 47, 20(S)-1α,25-dihydroxy-26,27-dimethylene-2-methylene-19-norvitamin D3]
- EC50 [7]: 2.7 nM
- VDR Binding ratio [7]: 3.1
- HL-60 Differentiation ED50 (HL-60 cells): 0.036 nM
- HL-60 Differentiation Activity ratio (HL-60 cells): 0.01
- Ca Transport S/M (mean ± SEM) [5, 10]: 5.6 ± 0.6^d^^1 S/M
- Ca Transport S/M (mean ± SEM) [5, 11]: 5.3 ± 0.5^d^^2 S/M
- Serum Ca (mean ± SEM) [6, 10]: 5.4 ± 0.2^d^^1
- Serum Ca (mean ± SEM) [6, 11]: 6.4 ± 0.2^d^^2
